Assay results: paper PMC3880646 (Journal of medicinal chemistry, 2013)

Key:
[1] = tested on: SJSA-1 xenograft model; conditions: cited from earlier work; for tumor growth in SJSA-1 xenograft model: high oral doses (200–300 mg/kg) ref 8, 21
[2] = tested on: p53 activation in SJSA-1 osteosarcoma cell line; test: Western blot analysis of p53 activation and PARP cleavage in SJSA-1 cells; format: cell-based, human; conditions: for full-length PARP (apoptosis induction) / p53 activation (accumulation of p53, MDM2 and p21): 24 h
[3] = tested on: p53 activation and apoptosis in SJSA-1 xenograft tumor tissues; test: Pharmacodynamics study in SJSA-1 xenograft tumor tissues
[4] = single oral dose 100 mg/kg, 24 h

| Compound | complete tumor regression [1] | tumor growth in SJSA-1 xenograft model [1] | full-length PARP (apoptosis induction) ([2]; Western blot) | p53 activation (accumulation of p53, MDM2 and p21) ([2]; Western blot) | times more potent than 2 in p53 activation [2] | times more potent than Nutlin-3a in p53 activation [2] [times] | lowest concentration activating p53 (clear accumulation of p21 and p53) ([2]; Western blot) [nM] | cleavage of PARP and caspase-3 in tumor tissue ([3]; single oral dose 100 mg/kg, 1, 3 and 6 h) | p53, p21 and MDM2 protein levels in tumor tissue ([3]; single oral dose 100 mg/kg, 3 h and 6 h) | cleavage of PARP and caspase-3 in tumor tissue [3, 4] | p53, p21 and MDM2 protein levels in tumor tissue [3, 4] |
| --- | --- | --- | --- | --- | --- | --- | --- | --- | --- | --- | --- |
| CC(C)(C)C[C@H]1N[C@@H](C(=O)NCC[C@H](O)CO)[C@H](c2cccc(Cl)c2)[C@@]12C(=O)Nc1cc(Cl)c(F)cc12 [Compound 1] | failed to achieve complete tumor regression | inhibited tumor growth |  |  |  |  |  |  |  |  |  |
| CC(C)(C)C[C@@H]1N[C@@H](C(=O)NCC[C@H](O)CO)[C@H](c2cccc(Cl)c2F)[C@]12C(=O)Nc1cc(Cl)ccc12 [Compound 2] | failed to achieve complete tumor regression | inhibited tumor growth | dose-dependently diminished | effectively and dose-dependently activate p53 |  |  |  |  |  |  |  |
| CC(C)(C)C[C@@H]1N[C@@H](C(=O)N[C@H]2C[C@@](C)(O)C2)[C@H](c2cccc(Cl)c2F)[C@]12C(=O)Nc1cc(Cl)ccc12 [Compound 9] |  |  | dose-dependently diminished | effectively and dose-dependently activate p53 | at least 3 times | 10 | 30 | minimal | robust upregulation | very clear | significantly diminished |
| COc1ccc(C2=N[C@@H](c3ccc(Cl)cc3)[C@@H](c3ccc(Cl)cc3)N2C(=O)N2CCNC(=O)C2)c(OC(C)C)c1 [Nutlin-3a, reference compound] |  |  | dose-dependently diminished | effectively and dose-dependently activate p53 |  |  |  |  |  |  |  |
